Assay results: ChEMBL document CHEMBL1139920, “Synthesis and biological evaluation of diamine-based histamine H3 antagonists with serotonin reuptake inhibitor activity” (Bioorg Med Chem Lett, 2007)

Key:
[1] = target: Sodium-dependent serotonin transporter (Homo sapiens, UniProt P31645); assay: Binding affinity at human SERT
[2] = target: Sodium-dependent serotonin transporter (Rattus norvegicus, UniProt P31652); assay: Binding affinity at rat SERT
[3] = target: T1, Histamine H3 receptor (Homo sapiens, UniProt Q9Y5N1); assay: Binding affinity at human histamine H3 receptor
[4] = target: T2, Sodium-dependent noradrenaline transporter (Homo sapiens, UniProt P23975); assay: Binding affinity at noradrenaline transporter at 1 uM
[5] = target: Histamine H2 receptor (Homo sapiens) (UniProt P25021); assay: Binding affinity at histamine H2 receptor at 1 uM
[6] = target: T2, Sodium-dependent noradrenaline transporter; assay: Binding affinity at human noradrenaline transporter
[7] = target: T1, Histamine H3 receptor; assay: Antagonist activity at human histamine H3 receptor; type: functional; details: read-out: pA2 (converted)

Chain of Sodium-dependent serotonin transporter (Rattus norvegicus, UniProt P31652) (P31652 whole entry): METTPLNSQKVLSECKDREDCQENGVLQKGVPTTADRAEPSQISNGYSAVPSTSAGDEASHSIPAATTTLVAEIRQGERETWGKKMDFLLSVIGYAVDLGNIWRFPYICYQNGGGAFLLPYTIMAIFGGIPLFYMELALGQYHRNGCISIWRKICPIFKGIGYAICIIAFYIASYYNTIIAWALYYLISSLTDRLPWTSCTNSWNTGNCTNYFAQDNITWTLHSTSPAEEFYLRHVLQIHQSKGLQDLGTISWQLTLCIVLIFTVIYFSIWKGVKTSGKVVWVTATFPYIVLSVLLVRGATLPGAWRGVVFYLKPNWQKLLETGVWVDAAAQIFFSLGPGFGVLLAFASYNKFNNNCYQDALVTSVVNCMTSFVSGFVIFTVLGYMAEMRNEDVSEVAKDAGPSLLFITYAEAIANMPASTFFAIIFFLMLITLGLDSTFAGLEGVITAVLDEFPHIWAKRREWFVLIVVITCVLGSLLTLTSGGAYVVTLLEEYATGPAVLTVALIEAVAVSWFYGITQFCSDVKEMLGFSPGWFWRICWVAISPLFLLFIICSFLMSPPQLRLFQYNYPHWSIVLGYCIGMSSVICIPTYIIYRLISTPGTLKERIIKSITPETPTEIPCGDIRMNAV
Chain of Sodium-dependent serotonin transporter (Homo sapiens, UniProt P31645) (P31645 whole entry): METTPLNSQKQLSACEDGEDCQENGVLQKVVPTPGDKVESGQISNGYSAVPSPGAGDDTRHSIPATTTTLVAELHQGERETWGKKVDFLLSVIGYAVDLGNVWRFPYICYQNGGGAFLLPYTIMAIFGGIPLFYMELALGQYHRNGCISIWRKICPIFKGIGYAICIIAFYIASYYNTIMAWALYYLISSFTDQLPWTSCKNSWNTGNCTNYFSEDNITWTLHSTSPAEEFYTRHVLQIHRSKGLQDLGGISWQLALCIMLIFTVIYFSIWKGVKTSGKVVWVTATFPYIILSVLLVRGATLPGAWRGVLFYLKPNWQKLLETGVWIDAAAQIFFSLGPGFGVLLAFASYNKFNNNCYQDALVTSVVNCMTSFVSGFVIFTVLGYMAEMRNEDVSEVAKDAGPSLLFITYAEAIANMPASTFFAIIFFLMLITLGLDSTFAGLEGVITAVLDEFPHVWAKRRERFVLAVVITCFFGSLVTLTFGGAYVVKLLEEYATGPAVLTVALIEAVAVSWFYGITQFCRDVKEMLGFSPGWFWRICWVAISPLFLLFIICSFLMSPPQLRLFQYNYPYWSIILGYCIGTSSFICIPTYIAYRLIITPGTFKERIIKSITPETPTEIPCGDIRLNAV
T1 sequence (Q9Y5N1 whole entry): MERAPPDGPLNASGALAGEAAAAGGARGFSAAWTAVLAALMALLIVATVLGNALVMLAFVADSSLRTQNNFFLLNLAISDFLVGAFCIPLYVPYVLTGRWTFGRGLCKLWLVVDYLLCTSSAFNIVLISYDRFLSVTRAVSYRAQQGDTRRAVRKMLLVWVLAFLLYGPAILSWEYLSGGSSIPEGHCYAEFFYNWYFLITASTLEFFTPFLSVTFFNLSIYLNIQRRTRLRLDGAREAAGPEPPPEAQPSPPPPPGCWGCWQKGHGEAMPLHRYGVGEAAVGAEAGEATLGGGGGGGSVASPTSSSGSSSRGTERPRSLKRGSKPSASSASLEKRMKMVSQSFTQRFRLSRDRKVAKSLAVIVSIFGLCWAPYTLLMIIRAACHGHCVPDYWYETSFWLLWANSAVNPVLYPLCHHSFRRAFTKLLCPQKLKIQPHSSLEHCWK
T2 sequence (P23975 whole entry): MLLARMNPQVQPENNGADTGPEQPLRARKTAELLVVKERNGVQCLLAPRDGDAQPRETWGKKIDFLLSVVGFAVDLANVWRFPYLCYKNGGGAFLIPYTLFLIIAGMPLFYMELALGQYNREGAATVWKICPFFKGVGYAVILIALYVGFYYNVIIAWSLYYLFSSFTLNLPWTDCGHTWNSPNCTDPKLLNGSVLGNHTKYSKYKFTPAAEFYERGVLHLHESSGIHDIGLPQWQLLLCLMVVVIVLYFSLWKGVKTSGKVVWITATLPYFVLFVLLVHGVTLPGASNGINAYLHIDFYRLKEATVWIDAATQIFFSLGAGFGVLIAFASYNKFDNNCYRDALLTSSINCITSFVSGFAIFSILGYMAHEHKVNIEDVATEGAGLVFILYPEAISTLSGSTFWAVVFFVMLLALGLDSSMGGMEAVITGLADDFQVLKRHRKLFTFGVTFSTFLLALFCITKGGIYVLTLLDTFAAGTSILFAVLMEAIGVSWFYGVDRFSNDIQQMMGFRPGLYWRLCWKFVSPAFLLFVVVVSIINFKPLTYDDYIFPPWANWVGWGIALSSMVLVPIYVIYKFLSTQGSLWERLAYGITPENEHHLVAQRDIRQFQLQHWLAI
Chain of Histamine H2 receptor (Homo sapiens) (P25021 whole entry): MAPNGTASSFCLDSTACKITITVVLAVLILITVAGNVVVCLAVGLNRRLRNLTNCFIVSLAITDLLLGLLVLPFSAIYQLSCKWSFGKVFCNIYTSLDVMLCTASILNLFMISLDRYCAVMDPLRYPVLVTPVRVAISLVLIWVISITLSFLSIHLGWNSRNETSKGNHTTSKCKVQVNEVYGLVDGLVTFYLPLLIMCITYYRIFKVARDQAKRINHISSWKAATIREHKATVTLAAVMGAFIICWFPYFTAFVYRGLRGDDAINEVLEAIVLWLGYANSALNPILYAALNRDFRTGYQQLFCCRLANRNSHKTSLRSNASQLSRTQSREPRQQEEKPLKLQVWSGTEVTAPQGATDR

Row | Ki [2] | Ki [3] | SMILES | also measured
1 | – | – | CN(C)CCC(Oc1cccc(OCCCN2CCCCC2)c1)c1ccccc1 (stereo not given) | Ki [1]: 1480 nM
2 | 2 nM | – | COc1cccc(OC(CCN(C)C)c2ccc(OCCCN3CCCCC3)cc2)c1 (stereo not given) | –
3 | – | 0.9 nM | CN(C)CCC(Oc1cccc(Cl)c1)c1ccc(OCCCN2CCCCC2)cc1 (stereo in doubt; 37) | Ki [1]: 2.7 nM
4 | 63 nM | 0.8 nM | CC(C)N1CCN(C(=O)c2ccc(C(CCN(C)C)Oc3ccccc3)cc2)CC1 (stereo not given) | –
5 | 6 nM | 1.3 nM | CN(C)CCC(Oc1ccccc1)c1ccc(C#CCCN2CCCCC2)cc1 (stereo not given) | –
6 | 7.7 nM | – | CN(C)CCC(Oc1ccc(Cl)c(Cl)c1)c1ccc(OCCCN2CCCCC2)cc1 (stereo in doubt; 40) | –
7 | – | 0.6 nM | CN(C)CCC(Oc1ccccc1)c1ccc(OCCCN2CCCCC2)cc1 (stereo not given) | Activity [4]: 73%; Activity [5]: 66%; Ki [6]: 201 nM; Kb [7]: 0.501 nM
8 | 2.3 nM | – | CN(C)CCC(Oc1cccc(Br)c1)c1ccc(OCCCN2CCCCC2)cc1 (stereo not given) | –
9 | 7.7 nM | – | CN(C)CCC(Oc1ccc(C#N)cc1)c1ccc(OCCCN2CCCCC2)cc1 (stereo not given) | –
10 | – | 0.7 nM | Cc1ccc(OC(CCN(C)C)c2ccc(OCCCN3CCCCC3)cc2)cc1 (stereo not given) | –
11 | 3.7 nM | – | CN(C)CCC(Oc1ccc([N+](=O)[O-])cc1)c1ccc(OCCCN2CCCCC2)cc1 (stereo not given) | Ki [1]: 8.7 nM
12 | 33 nM | 5 nM | CN(C)CCC(Oc1ccc(C(F)(F)F)cc1)c1ccc(C#CCCN2CCCCC2)cc1 (stereo not given) | –
13 | – | 1 nM | COc1ccc(OC(CCN(C)C)c2ccc(OCCCN3CCCCC3)cc2)cc1 (stereo not given) | –
14 | – | 0.9 nM | CN(C)CCC(Oc1cccc(Cl)c1)c1ccc(OCCCN2CCCCC2)cc1 (stereo in doubt; 38) | Ki [1]: 21 nM
15 | – | 3.3 nM | CN(C)CCC(Oc1ccccc1)c1cccc(OCCCN2CCCCC2)c1 (stereo not given) | –
16 | 10 nM | 2.7 nM | CN(C)CCC(Oc1ccc(C(F)(F)F)cc1)c1ccc(OCCCN2CCCCC2)cc1 (stereo not given) | –
17 | 7 nM | – | CN(C)CCC(Oc1ccc(Cl)c(Cl)c1)c1ccc(OCCCN2CCCCC2)cc1 (stereo in doubt; 39) | –
18 | 39 nM | – | CC(C)N1CCC(Oc2ccc(C(CCN(C)C)Oc3ccccc3)cc2)CC1 (stereo not given) | –
19 | 7.7 nM | 6630 nM | CN(C)CCC(Oc1ccc(C(F)(F)F)cc1)c1ccccc1 (stereo not given) | Ki [1]: 8.3 nM
20 | 2.3 nM | – | CN(C)CCC(Oc1ccc(Cl)cc1)c1ccc(OCCCN2CCCCC2)cc1 (stereo not given) | –
21 | – | 2.3 nM | CC(C)N1CCN(C(=O)c2ccc(C(CCN(C)C)Oc3ccc(C(F)(F)F)cc3)cc2)CC1 (stereo not given) | –
22 | – | – | CN(C)CCC(Oc1ccc(Br)cc1)c1ccc(OCCCN2CCCCC2)cc1 (stereo not given) | Ki [1]: 9 nM
